Measured values published in patent US9745328B2, “Flap modulators” (JANSSEN PHARMACEUTICA NV, priority 2013, dated 2017).
Structures can show the parent of a compound that is named as a salt.

The molecules below were run against human FLAP (Homo sapiens (Human), UniProt P20292) (assay: FLAP binding assay (HTRF format)). Conditions: Table 6 (additional runs), human FLAP wild type.
Outline: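 Reported data take the mean of two different plates carrying duplicate samples and use the HTRF ratio as the measured signal.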

Sequence of human FLAP (P20292 whole entry): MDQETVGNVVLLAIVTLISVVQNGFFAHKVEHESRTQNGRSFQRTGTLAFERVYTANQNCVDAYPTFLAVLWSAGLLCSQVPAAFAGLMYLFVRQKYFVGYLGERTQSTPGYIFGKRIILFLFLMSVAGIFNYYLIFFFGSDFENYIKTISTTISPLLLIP

| Ki [nM] | SMILES |
| --- | --- |
| 1.8 | Nc1cnc(-c2ccc(-c3ccccc3S(=O)(=O)N[C@H](c3ccccc3)C(F)(F)F)cc2F)cn1 [Example 18] |
| 4.6 | Nc1cnc(-c2ccc(-c3ccccc3S(=O)(=O)N3CCN(C(=O)C4CC4)CC3)cc2F)cn1 [Example 58, 5-(2′-{[4-(Cyclopropylcarbonyl)piperazin-1-yl]sulfonyl}-3-fluoroblphenyl-4-yl)pyrazin-2-amine] |
| 7.9 | CSc1ccc(F)cc1-c1ccc(-c2cnc3[nH]ccc3n2)c(F)c1 [Example 383] |
| 8.9 | Nc1ncc(-c2ccc(-c3ccccc3S(=O)(=O)N[C@H]3CCCC[C@@H]3O)cc2F)cn1 (racemic) [Example 260, racemic (trans) 4′-(2-Aminopyrimidin-5-yl)-3′-fluoro-N-[(trans)-2-hydroxycyclohexyl]biphenyl-2-sulfonamide] |
| 0.7 | Nc1cnc(-c2ccc(-c3ccccc3S(=O)(=O)N[C@@H](CO)c3ccccc3)cc2F)cn1 [Example 82, 4′-(5-Aminopyrazin-2-yl)-3′-fluoro-N-[(1R)-2-hydroxy-1-phenylethyl]biphenyl-2-sulfonamide] |
| 1.5 | CC(C)(C)[C@H](CO)NS(=O)(=O)c1ccccc1-c1ccc(-c2cnc(N)cn2)c(F)c1 [Example 150, (R)-4′-(5-aminopyrazin-2-yl)-3′-fluoro-N-(1-hydroxy-3,3-dimethylbutan-2-yl)-[1,1′-biphenyl]-2-sulfonamide] |
| 3.3 | Nc1cnc(-c2ccc(-c3ccccc3CSc3ccncn3)cc2F)cn1 [Example 243, 5-(3-fluoro-2′-((pyrimidin-4-ylthio)methyl)-[1,1′-biphenyl]-4-yl)pyrazin-2-amine hydrochloride] |
| 3.2 | Nc1cnc(-c2ccc(-c3ccccc3S(=O)(=O)N[C@@H]3CCCC[C@@H]3O)cc2F)cn1 [Example 87, 4′-(5-Aminopyrazin-2-yl)-3′-fluoro-N-[(1R,2S)-2-hydroxycyclohexyl]biphenyl-2-sulfonamide] |
| 0.9 | CCC(C)(C)NS(=O)(=O)c1ccccc1-c1ccc(-c2ccc(N)nc2)c(F)c1 [Example 349, 4′-(6-aminopyridin-3-yl)-3′-fluoro-N-(tert-pentyl)-[1,1′-biphenyl]-2-sulfonamide] |
| 1.9 | Nc1cnc(-c2ccc(-c3ccccc3S(=O)(=O)N[C@@H]3CCCC[C@H]3O)cc2F)cn1 [Example 85, 4′-(5-Aminopyrazin-2-yl)-3′-fluoro-N-[(1R,2R)-2-hydroxycyclohexyl]biphenyl-2-sulfonamide] |
| 2.9 | N#CCCNS(=O)(=O)c1ccccc1-c1ccc(-c2cnc(N)cn2)c(F)c1 [Example 169, 4′-(5-Aminopyrazin-2-yl)-N-(2-cyanoethyl)-3′-fluorobiphenyl-2-sulfanamide] |
| 0.8 | Nc1cnc(-c2ccc(-c3ccccc3S(=O)(=O)N3CCC(c4c[nH]cn4)CC3)cc2F)cn1 [Example 164, 5-(3-Fluoro-2′-{[4-(1H-imidazol-4′-yl)piperidin-1-yl]sulfonyl}biphenyl-4-yl)pyrazin-2-amine] |
| 3.7 | Nc1cnc(-c2ccc(-c3ccccc3S(=O)(=O)N3CC(F)(F)C3)cc2F)cn1 [Example 52, 5-{2′-[(3,3-Difluoroazetidin-1-yl)sulfonyl]-3-fluorobiphenyl-4-yl}pyrazin-2-amine] |
| 7 | Nc1cnc(-c2ccc(-c3ccccc3S(=O)(=O)N3CCCC3)cc2F)cn1 [Example 48, 5-[3-Fluoro-2′-(pyrrolidin-1-ylsulfonyl)biphenyl-4-yl]pyrazin-2-amine] |
| 1.6 | CCN(CC)S(=O)(=O)c1ccccc1-c1ccc(-c2cnc(N)cn2)c(F)c1 [Example 47, 4′-(5-Aminopyrazin-2-yl)-N,N-diethyl-3′-fluorobiphenyl-2-sulfonamide] |
| 60.8 | Nc1ncc(-c2ccc(-c3ccccc3S(=O)(=O)N3CCN(C4CC4)CC3)cc2F)cn1 [Example 281, 5-{2′-[(4-Cyclopropylpiperazin-1-yl)sulfonyl]-3-fluorobiphenyl-4-yl}pyrimidin-2-amine trifluoroacetic acid salt] |
| 1060 | C[C@@H](O)CNS(=O)(=O)Cc1ccccc1-c1ccc(-c2cnc(N)cn2)c(F)c1 [Example 228, (R)-1-[4′-(5-Aminopyrazin-2-yl)-3′-fluorobiphenyl-2-yl]-N-[(2S)-2-hydroxypropyl]methanesulfonamide] |
| 1.1 | Nc1cnc(-c2ccc(-c3ccccc3S(=O)(=O)NC3CCCCC3)cc2F)cn1 [Example 6, 4′-(5-Aminopyrazin-2-yl)-N-cyclohexyl-3′-fluorobiphenyl-2-sulfonamide] |
| 4.9 | Nc1cnc(-c2ccc(-c3ccccc3S(=O)(=O)NC3CC3)cc2F)cn1 [Example 89, 4′-(5-Aminopyrazin-2-yl)-N-cyclopropyl-3′-fluoroblphenyl-2-sulfonamide] |
| 6.1 | C[C@H](O)CNS(=O)(=O)c1ccccc1-c1ccc(-c2cnc(N)cn2)c(F)c1 [Example 98, (S)-4′-(5-aminopyrazin-2-yl)-3′-fluoro-N-(2-hydroxypropyl)-[1,1′-biphenyl]-2-sulfonamide] |
| 141 | CN[C@@H]1CCN(S(=O)(=O)c2ccccc2-c2ccc(-c3cnc(N)cn3)c(F)c2)C1 [Example 126, (R)-5-(3-Fluoro-2′-{[3-(methylamino)pyrrolidin-1-yl]sulfonyl}biphenyl-4-yl)pyrazin-2-amine] |

Same assay, conditions: human FLAP wild type, Table 6 (additional runs)

| Ki [nM] | SMILES |
| --- | --- |
| 1.6 | Nc1cnc(-c2ccc(-c3ccccc3Oc3cc(N4CCC4)ncn3)cc2F)cn1 [Example 539, 5-{2′-[(6-Azetidin-1-ylpyrimidin-4-yl)oxy]-3-fluorobiphenyl-4-yl}pyrazin-2-amine] |
| 0.7 | Nc1ccnc(Oc2ccccc2-c2ccc(-c3cnc4[nH]ccc4c3)c(F)c2)n1 [Example 524, 2-{[3′-Fluoro-4′-(1H-pyrrolo[2,3-b]pyridin-5-yl)biphenyl-2-yl]oxy}pyrimidin-4-amine] |
| 1 | CC(C)(C)NS(=O)(=O)c1ccccc1-c1cnc(-c2cnc(N)nc2)c(F)c1 [Example 675, 2-[6-(2-Aminopyrimidin-5-yl)-5-fluoropyridin-3-yl]-N-tert-butylbenzenesulfonamide] |
| 179 | Nc1cnc(-c2ccc(-c3ccccc3Cl)cc2F)cn1 [Example 469, 5-(2′-Chloro-3-fluorobiphenyl-4-yl)pyrazin-2-amine] |
| 73 | COc1ccccc1-c1ccc(-c2cnc(N)cn2)c(F)c1 [Example 473, 5-(3-Fluoro-2′-methoxybiphenyl-4-yl)pyrazin-2-amine] |
| 13.9 | CC(C)(C)NS(=O)(=O)c1ccccc1-c1ccc(-c2cnc(N)cn2)cc1F [Example 574, 4′-(5-Aminopyrazin-2-yl)-N-tert-butyl-2′-fluorobiphenyl-sultonamide] |
| 65.5 | N#Cc1nc(-c2ccc(-c3ccccc3S(=O)(=O)N3CCNC(=O)C3)cc2F)cnc1N [Example 414, 3-Amino-6-{3-fluoro-2′-[(3-oxopiperazin-1-yl)sulfonyl]biphenyl-4-yl}pyrazine-2-carbontrile] |
| 2.3 | CC(C)(C)NS(=O)(=O)c1ccccc1-c1ccc(-c2cnc(N)cn2)c(F)c1F [Example 462, 4′-(5-Aminopyrazin-2-yl)-N-tert-butyl-2′,3′-difluorobipnenyl-2-sulfonamide] |
| 50.9 | Nc1cnc(Oc2ccccc2-c2ccc(-c3cnc(N)nc3)c(F)c2)nc1 [Example 615, 5-{2′-[(5-Aminopyrimidin-2-yl)oxy]-3-fluorobiphenyl-4-yl}pyrimidin-2-amine] |
